Results: patent publication US20160297763A1, “Heteroaryl hydroxamic acid derivatives and their use in the treatment, amelioration or prevention of a viral disease” (priority 2011, published 2016)
Where two headings read alike, the source gives them in different places.

System: influenza A virus A/Aichi/2/68 (H3N2)
Test: Cytopathic effect (CPE) assay H3N2
Assay type: cell-based, influenza A virus (H3N2) on MDCK cells
Settings: for inhibition at 2 µM: H3N2, activity conc 2 (μM per method); for inhibition at 1 µM: H3N2, activity conc 1 (μM per method); for inhibition at 12 µM: H3N2, activity conc 12 (μM per method); for inhibition at 20 µM: H3N2, activity conc 20 (μM per method)
Method: A possible measure of the […] antiviral activity of the compounds having the formula I or II is the CPE assay disclosed herein. […] In this connection, the reduction in the virus-mediated cytopathic effect (CPE) upon treatment with the compounds was calculated as follows: The cell viability of infected-treated and uninfected-treated cells was determined using an ATP-based cell viability assay (Promega). The response in relative luminescent units (RLU) of infected-untreated samples was subtracted from the response (RLU) of the infected-treated samples and then normalized to the viability of the corresponding uninfected sample resulting in % CPE reduction.
The influenza A virus (IAV) was obtained from American Tissue Culture Collection (A/Aichi/2/68 (H3N2); VR-547). Virus stocks were prepared by propagation of virus on Mardin-Darby canine kidney (MDCK; ATCC CCL-34) cells and infectious titres of virus stocks were determined by the 50% tissue culture infective dose (TCID50) analysis as described in Reed, L. J., and H. Muench. 1938, Am. J. Hyg. 27:493-497.
MDCK cells were seeded in 96-well plates at 2×10^4 cells/well using DMEM/Ham's F-12 (1:1) medium containing 10% foetal bovine serum (FBS), 2 mM L-glutamine and 1 antibiotics (all from PAA). Until infection the cells were incubated for 5 hrs at 37° C., 5.0 CO2 to form a ˜80% confluent monolayer on the bottom of the well. Each test compound was dissolved in DMSO and generally tested at 25 μM and 250 μM. In those cases where the compounds were not soluble at that concentration they were tested at the highest soluble concentration. The compounds were diluted in infection medium (DMEM/Ham's F-12 (1:1) containing 5 μg/ml trypsin, and 1% antibiotics) for a final plate well DMSO concentration of 1%. The virus stock was diluted in infection medium (DMEM/Ham's F-12 (1:1) containing 5 μg/ml Trypsin, 1% DMSO, and 1% antibiotics) to a theoretical multiplicity of infection (MOI) of 0.05.
After removal of the culture medium and one washing step with PBS, virus and compound were added together to the cells. In the wells used for cytotoxicity determination (i.e. in the absence of viral infection), no virus suspension was added. Instead, infection medium was added. Each treatment was conducted in two replicates. After incubation at 37° C., 5% CO2 for 48 hrs, each well was observed microscopically for apparent cytotoxicity, precipitate formation, or other notable abnormalities. Then, cell viability was determined using CellTiter-Glo luminescent cell viability assay (Promega). The supernatant was removed carefully and 65 μl of the reconstituted reagent were added to each well and incubated with gentle shaking for 15 min at room temperature. Then, 60 μl of the solution was transferred to an opaque plate and luminescence (RLU) was measured using Synergy HT plate reader (Biotek).
Relative cell viability values of uninfected-treated versus uninfected-untreated cells were used to evaluate cytotoxicity of the compounds. Substances with a relative viability below 80% at the tested concentration were regarded as cytotoxic and retested at lower concentrations.
Reduction in the virus-mediated cytopathic effect (CPE) upon treatment with the compounds was calculated as follows: The response (RLU) of infected-untreated samples was subtracted from the response (RLU) of the infected-treated samples and then normalized to the viability of the corresponding uninfected sample resulting in % CPE reduction.

[1] = Influenza A virus, H3N2, activity conc 50 (μM per method), read-out: CPE H3N2 reduction (%)
[2] = Influenza A virus, H3N2, read-out: CPE H3N2 IC50
[3] = Influenza A virus, H3N2, activity conc 5 (μM per method), read-out: CPE H3N2 reduction (%)
[4] = Influenza A virus, read-out: CPE H3N2 reduction (%)
[5] = Influenza A virus, H3N2, read-out: CPE H3N2 reduction (%), activity conc 50 (μM per method)
[6] = activity conc 50 (μM per method)

Compound | inhibition at 50 µM [1] | other results
CN(C)C(=O)c1cccc(-c2ccnc(C(=O)N(O)Cc3ccccc3)c2)c1 | 5.3% | 
O=C(NO)c1cc2ccccc2cn1 [drawing 201] | 94.3% | IC50 [2]: 45 µM
CCON(C)C(=O)c1cccc(C)n1 | -1.9% | 
C[C@@H]1CN(c2ccnc(C(=O)N(O)Cc3ccccc3)c2)C[C@H](C)O1 [drawing 218] | 10.5% | 
O=C(c1cc(N2CCCCC2)ccn1)N(O)Cc1ccccc1 [drawing 183] |  | inhibition at 5 µM [3]: 1.1%
O=C(c1cc(-c2ccc(Cl)cc2)ccn1)N(O)Cc1ccccc1 [drawing 219] |  | inhibition at 2 µM [4]: -6.7%
O=C(c1cc(C2=CCNCC2)ccn1)N(O)Cc1ccccc1 | 0.4% | 
CN(c1ccnc(C(=O)NO)c1)S(=O)(=O)Cc1ccccc1 |  | inhibition at 5 µM [3]: -1.7%
CN(O)C(=O)c1cc(N2CCOCC2)ccn1 | 5.7% | 
CCONC(=O)c1cc(N2CCOCC2)ccn1 |  | inhibition at 50 µM [5]: 1.3%
CON(C)C(=O)c1cccc(C(=O)N(C)OC)n1 | -0.3% | 
O=C(c1cc(N2CCCCC2)ccn1)N(O)Cc1ccccc1 [drawing 197] |  | CPE H3N2 reduction (%) (activity conc 5 (μM per method)): 1.1%
O=C(NO)c1ccccn1 | 3.15% | 
O=C(c1cc(-c2cccc(CO)c2)ccn1)N(O)Cc1ccccc1 [drawing 240] |  | inhibition at 5 µM [3]: 7.7%
CON(C)C(=O)c1ccc2ccccc2n1 | -1.2% | 
O=C(NO)c1cc(NS(=O)(=O)Cc2ccccc2)ccn1 | 5.1% | 
O=C(c1cc(-c2ccccc2)ccn1)N(O)Cc1ccc(F)cc1 [drawing 223] |  | inhibition at 1 µM [4]: -3.2%
Cc1c(-c2ccccc2)sc2nc(NC3CCCCC3)[nH]c(=O)c12 [SAV-7640] |  | inhibition at 5 µM [3]: -3.2%
Cc1c(-c2ccc(Cl)c(C(F)(F)F)c2)sc2nc(N)[nH]c(=O)c12 [SAV-7623] |  | inhibition at 5 µM (Influenza A virus, H3N2, read-out: CPE H3N2 reduction (%), activity conc 5 (μM per method)): 1.9%
O=C(NO)c1cc(NS(=O)(=O)Cc2ccccc2F)ccn1 | -0.5% | 
CCONC(=O)c1cc(NCCCc2cccc(Cl)c2)ccn1 [drawing 168] |  | inhibition at 1 µM [4]: -0.3%
CN(OCc1ccccc1)C(=O)c1cc2ccccc2cn1 [drawing 184] | 0.6% | 
O=C(NO)c1cc(-c2ccc(Cl)cc2)ccn1 |  | inhibition at 5 µM [3]: 26.6%
CN(OCc1ccccc1)C(=O)c1ccc(-c2ccccc2)cn1 | -2.6% | 
CN(O)C(=O)c1cc(N2CCCCC2)ccn1 | -0.9% | 

Compound | inhibition at 50 µM [1] | other results
O=C(c1ccc(-c2ccccc2)cn1)N(O)Cc1ccccc1 [drawing 215] |  | inhibition at 12 µM [4]: 13.4%
O=C(NO)c1cc(NS(=O)(=O)Cc2ccc(Cl)cc2Cl)ccn1 |  | inhibition at 50 µM [5]: 60.1%
CCONC(=O)c1ccc(-c2cccc(CN(C)CCCc3ccccc3)c2)cn1 |  | inhibition at 20 µM [4]: 1.6%
O=C(NO)c1cc(NS(=O)(=O)Cc2ccc(F)cc2)ccn1 | -1.4% | 
Cc1cccc(C(=O)NOCc2ccccc2)n1 [drawing 170] | -2.7% | 
CC(C)c1cccc(-c2ccc(C(=O)N(O)CCc3ccccc3)nc2)c1 [drawing 207] |  | inhibition at 2 µM [4]: 2.1%
NC1CCN(c2ccnc(C(=O)N(O)Cc3ccccc3)c2)CC1 | 3.2% | 
CN(C)C1CCN(c2ccnc(C(=O)N(O)Cc3ccccc3)c2)CC1 | 12.3% | 
CC(C)(C)OC(=O)N1CCN(c2ccnc(C(=O)N(O)Cc3ccccc3)c2)CC1 | 34% | 
NC(=O)c1cccc(-c2ccnc(C(=O)N(O)Cc3ccccc3)c2)c1 [drawing 221] |  | inhibition at 5 µM [3]: -2.7%
O=C(NO)c1ccc(N2CCCC2)cn1 [drawing 204] | -4.3% | 
O=C(c1cc(C2CCNCC2)ccn1)N(O)Cc1ccccc1 | -1.4% | 
CC(C)(C)OC(=O)N1C2C=C(c3ccnc(C(=O)N(O)Cc4ccccc4)c3)CC1CC2 (centres unmarked) |  | inhibition at 2 µM [4]: -5.3%
O=C(c1cc(N2CCC(N3CCCCC3)CC2)ccn1)N(O)Cc1ccccc1 | 18.8% | 
O=C(c1cc(NS(=O)(=O)Cc2cccc(C(F)(F)F)c2)ccn1)N(O)Cc1ccccc1 | 22.4% | 
Cc1cccc(C(=O)N(C)OCc2ccccc2)n1 | -2.3% | 
O=C(c1cc2ccccc2cn1)N(O)CCc1ccccc1 [drawing 202] |  | inhibition at 20 µM [4]: -1.8%
O=C(c1cc(NS(=O)(=O)c2ccccc2)ccn1)N(O)Cc1ccccc1 [drawing 213] | -5.2% | 
O=C(c1cc(-c2ccc(Cl)c(Cl)c2)ccn1)N(O)Cc1ccccc1 [drawing 220] |  | inhibition at 5 µM [3]: 8.1%
CC(C)(C)OC(=O)NC1CCN(c2ccnc(C(=O)N(O)Cc3ccccc3)c2)CC1 [drawing 227] | 8.3% | 
CCONC(=O)c1ccccn1 | 12.5% | 
COc1ccc2nc(C(=O)NOCc3ccccc3)ccc2c1 | -1.9% | 
CCONC(=O)c1cc(NCc2cccc(OCc3ccccc3)c2)ccn1 |  | inhibition at 1 µM [4]: 1.2%
O=C(NOCc1ccccc1)c1ccc(-c2ccccc2)cn1 [drawing 172] |  | inhibition at 2 µM [4]: -4%
Cl.O=C(NO)c1cc(NS(=O)(=O)Cc2cccc(Cl)c2)ccn1 [drawing 288] |  | CPE H3N2 reduction (%) [6]: 2.29%

Compound | inhibition at 50 µM [1] | other results
Cc1cccc(-c2ccc(C(=O)N(O)Cc3ccccc3)nc2)c1 [drawing 181] |  | inhibition at 10 µM (Influenza A virus, H3N2, activity conc 10 (μM per method), read-out: CPE H3N2 reduction (%)): 15.5%
NC(=O)c1ccc(-c2ccnc(C(=O)N(O)Cc3ccccc3)c2)cc1 [drawing 232] |  | inhibition at 5 µM [3]: -2.5%
CCONC(=O)c1ccc2ccccc2n1 | -2.2% | 
O=C(c1cc(N2CCCCC2)cc[n+]1[O-])N(O)Cc1ccccc1 |  | inhibition at 5 µM [3]: -1.83%
CCONC(=O)c1cc(N)ccn1 | 10.5% | 
O=C(c1cc(N2CCCCC2)ccn1)N(O)CCCc1ccccc1 [drawing 203] |  | inhibition at 2 µM [4]: 7.7%
O=C(c1cc(N2CCCC(F)(F)C2)ccn1)N(O)Cc1ccccc1 [drawing 224] | 8.9% | 
CN(C)S(=O)(=O)c1cccc(-c2ccnc(C(=O)N(O)Cc3ccccc3)c2)c1 [drawing 233] |  | inhibition at 5 µM [3]: -1.8%
Cl.O=C(NO)c1cc(NS(=O)(=O)Cc2cccc(Cl)c2)ccn1 [drawing 267] |  | CPE H3N2 reduction (%) [6]: 5.9%
O=C(NOC(=O)c1cc(N2CCCCC2)ccn1)c1cc(N2CCCCC2)ccn1 [drawing 160] | 29% | IC50 [2]: 37 µM
Cc1cc(-c2sc3nc(N)[nH]c(=O)c3c2C)ccc1Cl [SAV-7620] |  | IC50 (Influenza A virus, H3N2, read-out: CPE H3N2 IC50 [μM]): 29 µM; inhibition at 50 µM [5]: 57.8%
O=C(NO)c1ccc(-c2ccccc2)cn1 [drawing 216] |  | inhibition at 12 µM [4]: 21.7%
CCONC(=O)c1ccc2c(=O)n(C)c(=O)n(C)c2n1 | -0.4% | 
O=C(c1ccc(N2CCCC2)cn1)N(Cc1ccccc1)OCc1ccccc1 [drawing 178] |  | inhibition at 5 µM [3]: -2.7%
CCONC(=O)c1cc(NCC2CCN(Cc3ccccc3)CC2)ccn1 | 14.8% | 
CCONC(=O)c1cccc(C)n1 | -2.1% | 
CC(C)c1cccc(-c2ccc(C(=O)NO)nc2)c1 [drawing 205] |  | inhibition at 2 µM [4]: -2.1%
O=C(NOCc1ccccc1)c1ccc(N2CCCC2)cn1 [drawing 177] |  | inhibition at 20 µM [4]: -8.7%
O=C(c1cc(C2=CCC3(CC2)OCCO3)ccn1)N(O)Cc1ccccc1 | 5.4% | 
O=C(c1cc(C2CCCNC2)ccn1)N(O)Cc1ccccc1 (centres unmarked) | 6.1% | 
O=C(c1cc2ccccc2cn1)N(O)CCCc1ccccc1 |  | inhibition at 2 µM [4]: 4.4%
CN1CCN(c2ccnc(C(=O)N(O)Cc3ccccc3)c2)CC1 | 2.4% | 
O=C(c1cc(NS(=O)(=O)Cc2cccc(Cl)c2)ccn1)N(O)Cc1ccccc1 | 9.5% | 
O=C(c1ccc(N2CCCCC2)cn1)N(O)Cc1ccccc1 [drawing 208] |  | inhibition at 5 µM [3]: -3.4%
